Patent US20240390390A1, “NITRIC OXIDE RELEASING PROSTAMIDE AS NEUROPROTECTIVE AGENT” (Nicox SA, priority 2021, published 2024)

Experiments:
[1] = system: subjects with open-angle glaucoma or ocular hypertension, non-study eyes with normal IOP; details: 0.024% once daily in the evening up to 12 months, cited from earlier work
[2] = system: ischemia/reperfusion injury of the optic nerve induced by endothelin-1 (ET-1) in rabbits; assay: Ophthalmic artery resistive index (OA-RI) by ecocolor Doppler in ET-1 ischemia/reperfusion rabbit model; type: in vivo, New Zealand white (NZW) rabbits; set-up: key: Pourcelot resistive index = (PSV−EDV)/PSV; details: for Ophthalmic artery resistive index (OA-RI), Baseline: prior to ET-1 dosing and prior to test item
Description: (§1) This series of experiments were performed to determine the effect of Compound (I) on ocular vascular reactivity i.e. ophthalmic artery resistive index (OA-RI) and, consequently, on retinal function after repeated ocular topical dosing in a well-defined model of ischemia/reperfusion injury of the optic nerve induced by the retrobulbar injection of endothelin-1 (ET-1) in rabbits.
(§2) Adult male New Zealand white (NZW) rabbits weighting 1.5-2.0 kg were used. The animals were kept in individual cages, food and water were provided ad libitum. The ischaemia/reperfusion lesion of the optic nerve was obtained by subtenonian injection twice a week with 500 μL of 250 nM ET-1 (Fluka, Israel) in water using a lacrimal cannula under anesthesia produced by ketamine (20 mg/kg, Lobotor, ACME, 100 mg/ml) and xilazine (5 mg/kg, Sedaxylan 2%, Dechra Veterinary Products S.r.l) intramuscularly. Animals were treated with ET-1 for 6 weeks. Compound (I) 0.1% (1 mg/mL) solution or vehicle were administered as eye drop (30 μL/eye), twice a day (around 10:00 AM and 4:00 PM) starting 2 weeks after ET-1 first dosing until the end of the experiment.
Ophthalmic Artery Resistive Index (OA-RI) was estimated using an ecocolor Doppler DynaView™ II SSD-1700 (Aloka Holding Europe AG, Milan, Italy) prior to ET-1 treatment (baseline, time 0), and weekly thereafter until the end of the study. From week 2 to week 4, morning dosing with test article or vehicle were omitted on the day of hemodynamic measurements in order to have virtually drug-free conditions (16-18 h post last dose) at the time of testing. Pourcelot resistive index for ophthalmic artery (OA-RI) was calculated as following: (PSV−EDV)/PSV where PSV and EDV refer to Peak Systolic Velocity and End Diastolic Velocity, respectively.

[3] = system: ischemia/reperfusion injury of the optic nerve induced by endothelin-1 (ET-1) in rabbits; assay: Electroretinogram (ERG) in ET-1 ischemia/reperfusion rabbit model; type: in vivo, New Zealand white (NZW) rabbits
Description: as §1, §2
Electroretinogram (ERG). Topical anesthesia was applied using one drop […] oxybuprocaine hydrochloride, 4 mg/ml. The eyes were then dilated by topical application of tropicamide 1% and, when needed, adapted to darkness for at least 2 hours prior to standard ERGs recording in both eyes using contact lens corneal electrodes so to have sufficiently stable and amplified recordings. The ERG signals [(amplitude, microvolts (μV)] were recorded using Retimax (CSO, Florence, Italy) and according to the current International Society for Clinical Electrophysiology (ISCEV) indications; specifically, the dark-adapted 0.01 ERG (rod response), dark-adapted 3.0 ERG (combined rod-cone response) and, light-adapted 3.0 (cone response) were recorded. Flashes intensity varied: • a) from 0.01 photopic cd·s·m^−2 to 0.025 scotopic candela-seconds per meter squared (cd·s·m^−2) with a minimum interval between flashes of 2 s for the dark-adapted 0.01 ERG; • b) from 3.0 photopic cd·s·m^−2 to 7.5 scotopic cd·s·m^−2 with a minimum interval between flashes of 10 s for the dark-adopted 3.0 ERG • c) from 3.0 photopic cd·s·m^−2 to 7.5 scotopic cd·s·m^−2 with a minimum interval between flashes of 0.5 s and a light adaptation strength of 30 cd·s·m^−2 for the light-adopted 3.0 ERG. In all cases ERG recordings lasted 250 ms. […].
Measurements were taken prior ET-1 first dose (baseline, time 0) and then at the end of week-2 (prior to vehicle- or Compound (I) first day-first dose) and at the end of week-6 (36 h after vehicle or Compound (I)-last day-last dose).

[4] = system: patients with open-angle glaucoma or ocular hypertension; assay: Phase 2 clinical trial, reduction of elevated intraocular pressure (IOP); type: in vivo, human
Description: The efficacy of Compound (I) for the reduction of elevated intraocular pressure (IOP) was evaluated in a Phase 2 clinical trial conducted in 433 patients with open-angle glaucoma or ocular hypertension, treated once daily for 27 days.

[5] = 0.1% solution, 30 μL/eye eye drop bid
[6] = 0.1% solution, 30 μL/eye eye drop bid, listed as Cpd (1)
[7] = 0.1% solution, 30 μL/eye bid, 36 h after last dose, ± S.E.M
[8] = after 2 weeks ET-1, prior to first dose of test item, ± S.E.M
[9] = prior to ET-1 and test item, ± S.E.M

Structure (SMILES): O=C(CCC/C=C\C[C@@H]1[C@@H](CC[C@@H](O)CCc2ccccc2)[C@H](O)C[C@@H]1O)OCCCCO[N+](=O)[O-] [Latanoprostene Bunod]
- IOP lowering from baseline, Japanese population ([1]; fellow eyes with baseline IOP ≤19 mmHg): 3.2-3.9 mmHg
- IOP lowering from baseline, Caucasian population ([1]; fellow eyes with baseline IOP ≤21 mmHg): 4.2-4.9 mmHg

Structure (SMILES): CCNC(=O)CCC/C=C\C[C@@H]1[C@@H](/C=C/[C@H](CCc2ccccc2)OC(=O)CCCCCO[N+](=O)[O-])[C@H](O)C[C@@H]1O [Compound (I), Hexanoic acid, 6-(nitrooxy)-, (1S,2E)-3-[(1R,2R,3S,5R)-2-[(2Z)-7-(ethylamino)-7-oxo-2-hepten-1-yl]-3,5-dihydroxycyclopentyl]-1-(2-phenylethyl)-2-propen-1-yl ester]
- Ophthalmic artery resistive index (OA-RI), ET-1 (3-weeks) + Test items (1 week daily bid) [2, 5]: 0.35 ± 0.03
- Ophthalmic artery resistive index (OA-RI), ET-1 (4-weeks) + Test items (2 weeks daily bid) [2, 5]: 0.32 ± 0.03
- Ophthalmic artery resistive index (OA-RI), ET-1 (5 weeks) + Test items (3 weeks daily bid) [2, 5]: 0.32±0.03
- Ophthalmic artery resistive index (OA-RI), ET-1 (6 weeks) + Test items (4 weeks daily bid) [2, 5]: 0.33±0.02
- Ophthalmic artery resistive index (OA-RI), ET-1 (5 weeks) + Test items (3 weeks daily bid) [2, 6]: 0.32 ± 0.03
- Ophthalmic artery resistive index (OA-RI), ET-1 (6 weeks) + Test items (4 weeks daily bid) [2, 6]: 0.33 ± 0.02
- Ophthalmic artery resistive index (OA-RI), ET-1 (2 weeks) ([2]; after 2 weeks ET-1, prior to first dose of test item): 0.36 ± 0.03
- Ophthalmic artery resistive index (OA-RI), Baseline [2]: 0.30±0.02
- Ophthalmic artery resistive index (OA-RI), Baseline ([2]; listed as Cpd (1)): 0.30 ± 0.02
- ERG Amplitude, Dark adapted 0.01 (Rod response), ET-1 (6 weeks) + Test items (4 weeks daily bid) [3, 7]: 44.3 ± 4.5 μV
- ERG Amplitude, Dark adapted 3.0 (Rod/cone response), ET-1 (6 weeks) + Test items (4 weeks daily bid) [3, 7]: 122.8 ± 11.4 μV
- ERG Amplitude, Light adapted 3.0 (cone response), ET-1 (6 weeks) + Test items (4 weeks daily bid) [3, 7]: 64.2 ± 6.8 μV
- ERG Amplitude, Dark adapted 0.01 (Rod response), ET-1 (2 weeks) [3, 8]: 37.6 ± 6.2 μV
- ERG Amplitude, Dark adapted 3.0 (Rod/cone response), ET-1 (2 weeks) [3, 8]: 96.6 ± 9.4 μV
- ERG Amplitude, Light adapted 3.0 (cone response), ET-1 (2 weeks) [3, 8]: 60.2 ± 4.3 μV
- Impairment in the ERG wave amplitude versus vehicle ([3]; eyes treated for 4 weeks, dark-adapted 0.01, dark-adapted 3.0 and Light-adapted 3.0): significantly (p<0.05) less impairment
- ERG Amplitude, Dark adapted 0.01 (Rod response), Baseline [3, 9]: 42.3 ± 6.9 μV
- ERG Amplitude, Dark adapted 3.0 (Rod/cone response), Baseline [3, 9]: 118.0 ± 10.3 μV
- ERG Amplitude, Light adapted 3.0 (cone response), Baseline [3, 9]: 67.6 ± 6.4 μV
- Conjunctival hyperemia, treated patients ([4]; Phase 2, highest dose tested): 16.8%
- Tolerability ([4]; Phase 2, once daily for 27 days): well tolerated
